From PubChem BioAssay AID1996
≈ marks a conversion by molar mass, not a printed value.

settings: buffer; pH 7.4; 200.0 µM

Row | SMILES | solubility kinetic [µg/mL]
1 | O=C(CC(Nc1ccc(Cl)cc1Cl)C(=O)O)c1ccccc1 (centres undefined) | 50 (≈ 148 µM)
2 | CC(C)(C)C(=O)NC1CC2CCCC(C1)N2C(=O)Nc1ccccc1F (centres undefined) | 6.1 (≈ 16.9 µM)
3 | O=C(COC(=O)c1cccnc1Cl)NCc1ccc(F)cc1 | > 48.4
4 | CN(CC(=O)NCc1ccccn1)S(=O)(=O)c1ccc(F)cc1 | > 50.6
5 | O=[N+]([O-])c1cc(CN2CCCCCC2)ccc1O | 33.3 (≈ 133 µM)
6 | Cc1ccc(C)c(NC(=O)CN(C)C(=O)c2ccncc2)c1 | 39.1 (≈ 131 µM)
7 | CC(=O)Nc1ccc(OC(=O)Cc2ccc(Cl)cc2)cc1 | 1.4 (≈ 4.61 µM)
8 | O=C1CN(O)C(c2ccccc2)=c2cc(Cl)ccc2=N1 | 37.9 (≈ 132 µM)
9 | CCNC(=O)c1ccccc1SCC(=O)Nc1ccc(F)cc1 | > 49.9
10 | O=C(Nc1cc(S(=O)(=O)N2CCCCC2)ccc1Cl)C1COc2ccccc2O1 (centres undefined) | 5.4 (≈ 12.4 µM)
11 | O=C(OCC(=O)N1CCCC1)c1cc(Cl)ccc1[N+](=O)[O-] | > 46.9
12 | Cc1cc(=O)oc2cc(NC(=O)C3CCCC3)ccc12 | 3 (≈ 11.1 µM)
13 | CCCCNC(=O)[C@@H]1CSC2c3ccccc3C(=O)N21 (some centres undefined) | > 43.6
14 | O=c1[nH]cnc(O)c1C(c1cccc([N+](=O)[O-])c1)c1c(O)nc[nH]c1=O | > 53.6
15 | Cc1ccc(NC(=O)CSc2ncccn2)cc1S(=O)(=O)N1CCOCC1 | > 61.3
16 | CN1CC(=O)Nc2ccc(Br)cc2C1=O | > 40.4
17 | CC(=O)N1CCCc2cc(S(=O)(=O)N3CCCC3)ccc21 | > 46.3
18 | CC(=O)c1ccc(OCC(=O)N2CCCC2c2ccc3c(c2)OCCCO3)cc1 (centres undefined) | 49.2 (≈ 124 µM)
19 | CSc1nsc(SCC(=O)Nc2ccc(F)cc2)n1 | 39.6 (≈ 126 µM)
20 | CC1(C)Nc2ccccc2C(=O)N1c1ccc(Br)cc1 | 12.1 (≈ 36.5 µM)

Row | SMILES | solubility kinetic [µg/mL]
21 | CC1CN(S(=O)(=O)c2cccc(C(F)(F)F)c2)CC(C)O1 (centres undefined) | 43.6 (≈ 135 µM)
22 | CC(Cc1ccccc1)NC=O (centres undefined) | 24.4 (≈ 149 µM)
23 | Cc1nc(SCC(=O)NC2CC2)c2c(C)c(C)sc2n1 | 11.6 (≈ 37.7 µM)
24 | CCc1ccccc1N1CN(Cc2ccco2)CNC1=S | > 45.2
25 | CC1=C(C)C(OCCBr)N(c2cc(O)c(Cl)cc2F)C1=O (centres undefined) | > 56.8
26 | O=C(NC1CCCC1)c1cc(COc2ccc3ncccc3c2)on1 | 21.2 (≈ 62.8 µM)
27 | CC1Cc2ccccc2N1C(=O)c1ccc(F)c(S(=O)(=O)N2CCOCC2)c1 (centres undefined) | 50.3 (≈ 124 µM)
28 | Cc1ccc(N=Cc2c(O)c3ccccc3oc2=O)c(C)c1 | < 0.6
29 | COc1ccc(-c2noc(CN(C)C(=O)c3ccco3)n2)cc1 | 42.7 (≈ 136 µM)
30 | CC(=O)Nc1ccccc1C(=O)C(=O)Nc1ccc(F)c(Cl)c1 | 2.4 (≈ 7.17 µM)
31 | NS(=O)(=O)c1ccc(-n2cccc2C=O)cc1 | 36.1 (≈ 144 µM)
32 | O=C(c1cc2c(ccc3ccccc32)o1)N1CCCCC1 | 2.6 (≈ 9.31 µM)
33 | CCOc1ccc(Nc2cc(C)c3ccccc3n2)cc1 | < 0.3
34 | CCOC(=O)C(=CNc1ccc(Cl)cn1)C(=O)OCC | 1.2 (≈ 4.02 µM)
35 | O=c1oc(Nc2cccc(Cl)c2)nc2ccccc12 | 0.5 (≈ 1.83 µM)
36 | O=C(Nc1nc2ccsc2c(=O)s1)c1ccc(F)cc1 | < 0.3
37 | Cn1c(N)c(C(=O)COC(=O)CNC(=O)c2ccccc2)c(=O)n(C)c1=O | > 56.2
38 | COc1cccc(N2C(=O)/C(=C\c3cccs3)NC2=S)c1 | 4.1 (≈ 13 µM)
39 | COc1ccc(NS(=O)(=O)c2ccc3c(c2)CCO3)cc1 | 45 (≈ 147 µM)
40 | Cc1nnc(SCC(=O)N(C)CC(=O)Nc2ccccc2Cl)s1 | > 55.6

Row | SMILES | solubility kinetic [µg/mL]
41 | O=[N+]([O-])c1cccc(NC(=S)N2CCc3ccccc32)c1 | 7.6 (≈ 25.4 µM)
42 | CCc1ccc2c(CN3CCC(C(=O)OC)CC3)cc(=O)oc2c1 | > 49.4
43 | CCCCNC(=O)NS(=O)(=O)c1ccc(C)cc1 | > 40.6
44 | Cc1ccc2c(c1)-c1[nH]c(=S)ncc1CS2 | 3.8 (≈ 15.4 µM)
45 | NS(=O)(=O)c1ccc(Nc2c([N+](=O)[O-])cncc2[N+](=O)[O-])cc1 | 50.4 (≈ 149 µM)
46 | COC(=O)c1ccc(NC(=O)Cn2c([N+](=O)[O-])cnc2C)cc1 | 28.8 (≈ 90.5 µM)
47 | Cc1cc(=O)oc2cc(NC(=O)CC3(CC(=O)O)CCCC3)ccc12 | 50.2 (≈ 146 µM)
48 | O=C(OCC(=O)N1CCc2ccccc21)c1ccncc1 | 33.1 (≈ 117 µM)
49 | COc1ccccc1-n1cccc1C=O | > 30.2
50 | Cc1ccc(S(=O)(=O)N2CCc3ccccc3C2CC(=O)O)cc1 (centres undefined) | > 51.8
51 | CC(Sc1nnc(Cc2ccccc2)o1)C(=O)NC1(C#N)CCCCC1 (centres undefined) | > 55.6
52 | COc1ccc(C(C)(C)C)cc1NC(=O)C1CC(=O)N(C2CCCC2)C1 (centres undefined) | > 53.8
53 | CC(=C\c1ccccc1)/C=C1/SC(=S)N(CCCC(=O)O)C1=O | > 52.1
54 | O=C(NC1CC1)c1cc2ccccc2o1 | > 30.2
55 | CC(=C1C(=O)c2ccccc2C1=O)N1CCN(c2ccc(F)cc2)CC1 | > 52.6
56 | COC(=O)C(Cc1ccccc1)N1CCS(=O)(=O)CC1 (centres undefined) | > 44.6
57 | O=C(O)c1ccccc1Nc1ccnc(Cl)n1 | > 37.4
58 | CN(CCO)CC(O)CN(c1ccccc1)c1ccccc1.Cl (centres undefined) | 49.9
59 | CC(=O)NC(=S)Nc1cc(C(=O)O)ccc1Cl | > 40.9
